Reference: US20250195475A1, “CDK2 INHIBITOR AND PREPARATION METHOD AND USE THEREOF” (INVENTISBIO CO., LTD., priority 2022, published 2025)
pIC50: −log10 of the molar value.

Biological target: CDK2/CyclinE1 (Homo sapiens (Human), UniProt P24941)
Assay: CDK2 kinase assay (TR-FRET)
Assay type: biochemical
Conditions: CDK2/CyclinE1 0.5 nM, ATP 50 μM
Protocol: The purpose of these assays is to evaluate the inhibition of small molecule inhibitors by using TR-FRET assay.
Compound Preparation. Dissslove the compounds into DMSO solution to make 10 mM DMSO stock. Serially dilute the stock solution from highest concentration down to lowest in DMSO to make the compound stock plate (100× stock plates). To make 5× compound intermediate plate, add 38 μL of assay buffer (50 mM HEPES, pH 7.5, 0.05 mg/mL BSA, 10 mM MgCl2, 1 mM EGTA, 0.01% Tween-20, 2 mM DTT) into each well of the V-bottom plate; then transfer 2 μL of the stock compound solution of each concentration from the compound stock plate (100× stock), and mix well.
Enzyme reaction. Transfer 2 μL compound from 5× intermediate plate into assay plate, then add 4 μL/well 2.5× Enzyme mix to assay plate, incubation for 10 min at room temperature. For positive control wells, add 4 μL/well assay buffer instead of Enzyme mix. Then add 4 μL/well 2.5× Substrate mix to assay plate, and incubation at 25° C. for 30 min at room temperature. After reaction, 10 μL 2× Detection mix (final 15 mM EDTA, 1× LANCE Detection Buffer, 0.5 nM Detection antibody) was added and incubated for 1 h prior to detection with excitation and emission at 320 and 665 nm (Tecan Spark® TR-FRET mode Tecan).
Inhibition rate (IR) of the tested compounds was determined by the following formula: IR (%)=(average High control−compound well)/(average High control−average Low control)*100%. Fit the compound IC50 from non-linear regression equation: Y=Bottom+(Top−Bottom)/(1+10^((Log IC50−X)*HillSlope)). X: Log of cpd concentration; Y: Inhibition rate (TR); Top and Bottom: Plateaus in same units as Y, log IC50: same log units as X; HillSlope: Slope factor or Hill slope.

Row | Structure (SMILES) | pIC50
1 | Cc1cc(CC(=O)Nc2cc([C@H]3CC[C@@H](OC(=O)NC4COC5(CCC5)C4)C3)[nH]n2)on1 (single isomer, unassigned) [Compound 38] | 7.65
2 | Cc1cc(CC(=O)Nc2cc([C@H]3CC[C@@H](OC(=O)NC4COC5(CCC5)C4)C3)[nH]n2)on1 (single isomer, unassigned) [Compound 39] | 8.40
3 | Cn1nccc1C(=O)Nc1cc([C@H]2CC[C@@H](OC(=O)NC3COC4(CCC4)C3)C2)[nH]n1 (single isomer, unassigned) [Compound 43] | 7.92
4 | Cn1nc(C2CC2)cc1C(=O)Nc1cc([C@H]2CC[C@@H](OC(=O)NC3COC4(CCC4)C3)C2)[nH]n1 (single isomer, unassigned) [Compound 47] | 7.19
5 | Cn1nc(C2CC2)cc1C(=O)Nc1cc([C@H]2CC[C@@H](OC(=O)NC3COC4(CCC4)C3)C2)[nH]n1 (single isomer, unassigned) [Compound 48] | 7.97
6 | COC1CCC(C(=O)Nc2cc([C@H]3CC[C@@H](OC(=O)NC(C)C)C3)[nH]n2)C1 (single isomer, unassigned) [Compound 60] | 7.43
7 | COC1CCC(C(=O)Nc2cc([C@H]3CC[C@@H](OC(=O)NC(C)C)C3)[nH]n2)C1 (single isomer, unassigned) [Compound 61] | 7.88
8 | COC[C@H]1C[C@@H]1C(=O)Nc1cc([C@H]2CC[C@@H](OC(=O)NC(C)C(F)F)C2)[nH]n1 (single isomer, unassigned) [Compound 107] | 8.52
9 | COC[C@H]1C[C@@H]1C(=O)Nc1cc([C@H]2CC[C@@H](OC(=O)NC(C)C(F)F)C2)[nH]n1 (single isomer, unassigned) [Compound 108] | 8.30
10 | CC(C)NC(=O)O[C@@H]1CC[C@H](c2cc(NC(=O)C3CC3C#N)n[nH]2)C1 (single isomer, unassigned) [Compound 117] | 8.42
11 | CC(C)NC(=O)O[C@@H]1CC[C@H](c2cc(NC(=O)C3CC3C#N)n[nH]2)C1 (single isomer, unassigned) [Compound 118] | 8.74
12 | CC(C)NC(=O)O[C@@H]1CC[C@H](c2cc(NC(=O)C3CC(C)N(S(C)(=O)=O)C3)n[nH]2)C1 (single isomer, unassigned) [Compound 144] | 8.37
13 | CC(C)NC(=O)O[C@@H]1CC[C@H](c2cc(NC(=O)C3CC4CCC3O4)n[nH]2)C1 (single isomer, unassigned) [Compound 146] | 7.35
14 | COCC1CC(C(=O)Nc2cc([C@H]3CC[C@@H](OC(=O)NC(C)C)C3)[nH]n2)C1 (single isomer, unassigned) [Compound 148] | 8.26
15 | COCC1CC(C(=O)Nc2cc([C@H]3CC[C@@H](OC(=O)NC(C)C)C3)[nH]n2)C1 (single isomer, unassigned) [Compound 149] | 7.87
16 | CC(C)NC(=O)O[C@@H]1CC[C@H](c2cc(NC(=O)C3CC4CCC3O4)n[nH]2)C1 (single isomer, unassigned) [Compound 152] | 7.07
17 | CC(C)NC(=O)O[C@@H]1CC[C@H](c2cc(NC(=O)C3CC3c3cnnn3C)n[nH]2)C1 (single isomer, unassigned) [Compound 153] | 8.68
18 | CC(C)NC(=O)O[C@@H]1CC[C@H](c2cc(NC(=O)C3CC3c3cnnn3C)n[nH]2)C1 (single isomer, unassigned) [Compound 154] | 8.59
19 | Cc1c(C2CC2C(=O)Nc2cc([C@H]3CC[C@@H](OC(=O)NC(C)C)C3)[nH]n2)cnn1C (single isomer, unassigned) [Compound 163] | 9.15
20 | CC(C)(C)NC(=O)O[C@@H]1CC[C@H](c2cc(NC(=O)C3CC3C#N)n[nH]2)C1 (single isomer, unassigned) [Compound 187] | 8.85
21 | CC(C)(C)NC(=O)O[C@@H]1CC[C@H](c2cc(NC(=O)C3CC3C#N)n[nH]2)C1 (single isomer, unassigned) [Compound 188] | 9.22
22 | CC(C)NC(=O)O[C@H]1CC[C@@H](c2cc(NC(=O)C3CC3C#N)n[nH]2)C1 (single isomer, unassigned) [Compound 192] | 8.70
23 | CC(C)NC(=O)O[C@H]1CC[C@@H](c2cc(NC(=O)C3CC3C#N)n[nH]2)C1 (single isomer, unassigned) [Compound 193] | 9.22
24 | CC1(NC(=O)O[C@H]2CC[C@@H](c3cc(NC(=O)C4CC4C#N)n[nH]3)C2)CC1 (single isomer, unassigned) [Compound 195] | 8.82
25 | CC(C)NC(=O)O[C@@H]1CC[C@H](c2cc(NC(=O)C3CCOCC3)n[nH]2)C1 [Compound 1] | 8.15
26 | CO[C@H]1CC[C@H](C(=O)Nc2cc([C@H]3CC[C@@H](OC(=O)NC(C)C)C3)[nH]n2)CC1 [Compound 2] | 7.75
27 | CC(C)NC(=O)O[C@@H]1CC[C@H](c2cc(NC(=O)[C@H]3CCN(S(C)(=O)=O)C3)n[nH]2)C1 [Compound 7] | 8.62
28 | CC(C)NC(=O)O[C@@H]1CC[C@H](c2cc(NC(=O)C3CCN(S(C)(=O)=O)CC3)n[nH]2)C1 [Compound 8] | 7.95

The remaining lines, values ahead:

Row | pIC50 | Structure (SMILES)
29 | 9.40 | CC1(NC(=O)O[C@H]2CC[C@@H](c3cc(NC(=O)C4CC4C#N)n[nH]3)C2)CC1 (single isomer, unassigned) [Compound 196]
30 | 8.64 | CC[C@H](C)NC(=O)O[C@@H]1CC[C@H](c2cc(NC(=O)C3CC3C#N)n[nH]2)C1 (single isomer, unassigned) [Compound 199]
31 | 9.05 | CC[C@H](C)NC(=O)O[C@@H]1CC[C@H](c2cc(NC(=O)C3CC3C#N)n[nH]2)C1 (single isomer, unassigned) [Compound 200]
32 | 7.62 | Cc1c(C2CC2C(=O)Nc2cc([C@H]3CC[C@@H](OC(=O)NC4(C)CC4)C3)[nH]n2)cnn1C (single isomer, unassigned) [Compound 205]
33 | 9.10 | Cc1c(C2CC2C(=O)Nc2cc([C@H]3CC[C@@H](OC(=O)NC4(C)CC4)C3)[nH]n2)cnn1C (single isomer, unassigned) [Compound 206]
34 | 7.40 | Cc1c(C2CC2C(=O)Nc2cc([C@@H]3CC[C@H](OC(=O)NC(C)C)C3)[nH]n2)cnn1C (single isomer, unassigned) [Compound 207]
35 | 9.10 | Cc1c(C2CC2C(=O)Nc2cc([C@@H]3CC[C@H](OC(=O)NC(C)C)C3)[nH]n2)cnn1C (single isomer, unassigned) [Compound 208]
36 | 7.54 | CC(C)NC(=O)O[C@@H]1CC[C@H](c2cc(NC(=O)C3CC3c3cnn(C)c3)n[nH]2)C1 (single isomer, unassigned) [Compound 209]
37 | 9.00 | CC(C)NC(=O)O[C@@H]1CC[C@H](c2cc(NC(=O)C3CC3c3cnn(C)c3)n[nH]2)C1 (single isomer, unassigned) [Compound 210]
38 | 8.68 | CC1(NC(=O)O[C@@H]2CC[C@H](c3cc(NC(=O)C4CC4C#N)n[nH]3)C2)CC1 (single isomer, unassigned) [Compound 212]
39 | 9.05 | CC1(NC(=O)O[C@@H]2CC[C@H](c3cc(NC(=O)C4CC4C#N)n[nH]3)C2)CC1 (single isomer, unassigned) [Compound 213]
40 | 8.82 | COC(C)[C@H]1C[C@@H]1C(=O)Nc1cc([C@H]2CC[C@@H](OC(=O)NC3(C)CC3)C2)[nH]n1 (single isomer, unassigned) [Compound 220]
41 | 9.10 | COC(C)[C@H]1C[C@@H]1C(=O)Nc1cc([C@H]2CC[C@@H](OC(=O)NC3(C)CC3)C2)[nH]n1 (single isomer, unassigned) [Compound 221]
